According to patent US12606833B2, “Modified mini-nucleosome core proteins and use in nucleic acid delivery” (priority 2020, dated 2026):
Where no end group is shown, it is not given here. [ ]: non-standard residue; d: D form. LINKER = not defined here

What was measured:
[1] = Transmission Electron Microscopy (TEM) of loaded mini-nucleosomes; assay type: physicochemical; conditions: luciferase plasmid (SEQ ID NO: 396) condensed with core protein, formulated in water
Description: To form loaded mini-nucleosomes represented in FIG. 7, core proteins were synthesized by solid phase synthesis using trifluoroacetate buffers. 200 micrograms of DNA (SEQ ID NO: 396) were added to 1 milligram of lyophilized core proteins and vortexed together, and purified to produce loaded mini-nucleosomes (FIG. 7). Buffer exchange was performed and final formulation of mini-nucleosome was made in sterile, endotoxin free water. 1 microgram of each kind of mini-nucleosomes was diluted in water and then placed on grids that were stained with freshly prepared in 0.75% uranyl acetate in methanol solution for two minutes. Grids were dipped in 100% ethanol and then blotted into lens absorbent paper. The grids were then air-dried for few minutes with film side up and taken for imaging with Hammatsu ORCA HR camera (FIG. 7).

skeletal muscle cells = experiment: GFP expression in leg muscle after intramuscular injection (dystrophin immunolabeling); assay type: in vivo, Balb/c mice; conditions: 17.5 μg per leg, 3-month time point, FIG. 18
Description: Balb/c mice were anesthetized by IP injection with Ketamine/Xylazine (90-100 mg/kg+10 mg/kg) and several loaded mini-nucleosomes were injected into both leg muscle at 17.5 μg doses per leg using an insulin syringe (Total dose 35 micrograms per mice). Mice were sacrificed at various time points and leg muscle were obtained for tissue sections. […] One skilled in the art may contemplate combining such domains with other domains known for muscle tropism.
To validate muscle specificity of expression of genes encoded by the nucleic acid cargo, we utilized dystrophin immunolabeling as an endogenous secondary marker. […] Native fluorescence of GFP was obtained in the 486-nm channel of Leica SP5 scope. Dystrophin in red is the RFP channel (555-nm). Untransduced muscle cells in figure also serve as internal control for differentiation between GFP signal and autofluorescence.

retina and RPE cells = experiment: GFP expression in retina and RPE after intravitreal injection in mice; assay type: in vivo, Balb/c mice; conditions: 1.5 micrograms, GFP plasmid, FIGS. 10 and 12
Description: In the present Example, Balb/c mice were anesthetized by IP injection with Ketamine/Xylazine (90-100 mg/kg+10 mg/kg) and positioned underneath a microscope. Mice eyes were dilated with topical Tropicamide (1%) and 1 μl of loaded mini-nucleosomes (total dose 1.5 micrograms in mice) were injected into the vitreous cavity using 32 gauge blunt needle passing through the incision made by a 25-gauge needle below the limbus. At various time points, mice were perfused with 10 ml of 1xPBS, and then sacrificed using standard techniques. Mice were enucleated and eyecups were collected and incubated in 4% paraformaldehyde overnight. The eyecups were washed with 1xPBS, then immersed in 15% sucrose for few hours and then in 30% sucrose solution overnight for cryopreservation. The eyecups were then placed in a plastic vial and frozen using OCT compound for cryo-sectioning. 10-micron thick tissue sections were obtained for staining. The retinal sections were mounted with mounting media with or without DAPI, coverslip and sealed. Images were acquired by Leica SP5. For wholemount imaging, eyecups were fixed in 4% paraformaldehyde overnight. Eyecups were washed in 1xPBS, retina was removed and the remaining eyecup or RPE wholemount was processed for staining. The RPE tissue was wholemounted with mounting media, coverslip and sealed. Images were acquired by Leica SP5.

RPE cells = experiment: GFP expression in rat retinal tissue after intraocular delivery; assay type: in vivo; conditions: rat eyes, FIG. 11
Source text: To selectively transduce photoreceptors, the present Example utilized core proteins like those of SEQ ID NO:394. […] This neuronal attachment domain has not been previously applied for non-viral vectors to target neurons. The present disclosure provides that this neuronal targeted vector can transduce neurons in the brain via local or systemic administration. The present disclosure further provides for targeting photoreceptor binding and internalization by incorporating lectin binding domains (described in Table 4) in mini-nucleosomes for attachment to photoreceptor extracellular matrix to enhance uptake. […] Moreover, more than one domain could be utilized to selectively transduce a plurality of diverse cell types. This core protein (SEQ ID NO: 390) with integrin binding properties may also be utilized for delivery of nucleic acids to other cell types that express high levels of aVB5 integrin. The present disclosure further provides use of other intra-ocular injection techniques such as subretinal, suprachoroidal, intra-cameral, or topical administration to target photoreceptors, RPE, Mueller cells or other cell types in the retina.

lung epithelium = experiment: GFP expression after intranasal delivery (lung sections with CFTR staining, whole lung imaging, trachea); assay type: in vivo, Balb/c mice; conditions: 5-week post injection, FIGS. 15 and 16
Description: In the present Example, Balb/c mice were anesthetized by IP injection with Ketamine/Xylazine (90-100 mg/kg+10 mg/kg) and the anesthetized mice were positioned underneath a microscope for visual of the nasal area for intranasal delivery. 1 μl of loaded mini-nucleosome (SEQ ID NO: 390+GFP plasmid) solution was delivered into the nasal cavity every few seconds until 12 microliters were delivered to each nasal side. Total dose of 25 micrograms was delivered. Following sacrifice, mice lung was processed to obtain 10 micron thick sections. Sections were washed in PBS and incubated in blocking buffer (0.1% TritonX-100, 1% BSA, 3% donkey serum) for 1 hr and then incubated in CFTR antibody (prepared on blocking buffer) blocking buffer overnight at 4 degree Celsius. Next day wash in PBS 3×5 min and incubated in AlexaFlour-555 (Donkey Anti-rabbit IgG secondary) in blocking buffer at RT for 1 hour and washed in PBS 3×5 min. Mounting media was added and coverslip was applied and sealed. Native fluorescence of GFP was obtained in the 486 nm channel of Leica SP5 scope in the 486-nm wavelength and CFTR expression in the 555-nm channel.
In the present Example, whole lung tissue and biodistribution via mini-nucleosome was also evaluated (FIG. 15). […] Whole tissues were placed in the Odyssey imager for detecting GFP native fluorescence.

## KKKRHRKKKKK-[LINKER]-RGD-[LINKER]-KKKK-[LINKER]-NTQIH-[LINKER]-RRRRR-[LINKER]-TPH-[LINKER]-KK (KKKRHRKKKKK[LINKER]RGD[LINKER]KKKK[LINKER]NTQIH[LINKER]RRRRR[LINKER]TPH[LINKER]KK; not fully specified; numbers in words are those of the source; reading uncertain; also: linkers of unspecified length between segments (after 11, 14, 18, 23, 28, 31)) [SEQ ID NO: 391]
[1]
  Shape of loaded mini-nucleosome (TEM): mixture of circular and rod like molecules
Skeletal muscle cells
  GFP fluorescence in muscle tissue sections: sharp green fluorescence in skeletal muscle cells

## KKKRHRKRKRKRKRRRRKKK-[LINKER]-ASSLNIAK-[LINKER]-RRRR (KKKRHRKRKRKRKRRRRKKK[LINKER]ASSLNIAK[LINKER]RRRR; not fully specified; numbers in words are those of the source; reading uncertain; also: linkers of unspecified length between segments (after 20 and 28)) [SEQ ID NO: 389]
Skeletal muscle cells
  GFP fluorescence in muscle tissue sections: didn't exhibit GFP fluorescence

## KKKRK-[LINKER]-KTKKK-[LINKER]-AK-[LINKER]-KALKKK-[LINKER]-KKGKKKKRRRRKAAPKK (KKKRK[LINKER]KTKKK[LINKER]AK[LINKER]KALKKK[LINKER]KKGKKKKRRRRKAAPKK; not fully specified; numbers in words are those of the source; reading uncertain; also: linkers of unspecified length between segments (after 5, 10, 12, 18)) [SEQ ID NO: 392]
Retina and RPE cells
  GFP expression / uptake in mouse retina and RPE: enhanced uptake into the RPE

## KKKRK-[LINKER]-NGR-[LINKER]-KRKRKKRHRKKKKRRRRKRHRK-[LINKER]-NGR-[LINKER]-KKK (KKKRK[LINKER]NGR[LINKER]KRKRKKRHRKKKKRRRRKRHRK[LINKER]NGR[LINKER]KKK; not fully specified; numbers in words are those of the source; reading uncertain; also: linkers of unspecified length between segments (after 5, 8, 30, 33)) [SEQ ID NO: 390]
RPE cells
  GFP expression in rat retinal tissue: transduce RPE cells in rat eyes exclusively
[1]
  Shape of loaded mini-nucleosome (TEM): rod/lobular shaped
Lung epithelium
  GFP native fluorescence in whole lung tissue / sustained expression: high levels of sustained expression

## KKRHRK-[LINKER]-LRE-[LINKER]KRHRKLRRRRRLKRHRKKRHRK-[LINKER]-LRE-[LINKER]-K (KKRHRK[LINKER]LRE[LINKER]KRHRKLRRRRRLKRHRKKRHRK[LINKER]LRE[LINKER]K; not fully specified; numbers in words are those of the source; reading uncertain; also: linkers of unspecified length between segments (after 6, 9, 31, 34)) [SEQ ID NO: 394]
Retina and RPE cells
  GFP expression / uptake in mouse retina and RPE: transduction into ganglion cells, bipolar cells and photoreceptors
